Reference: EP0261362A2, “Ubidecarenone as a keloid remedy” (Eisai Co., Ltd., priority 1986, dated 1988)

Experiments:
Format in all cases: in vivo
[1] = test system: skin; assay: Phototoxis test; details: Concn. 1% and 10%, solvent Squalane
Text: (§1) The safety of percutaneous administration of ubidecarenone is high, and skin irritation due to ubidecarenone is minor. For example, the results of primary skin irritation, accumulative irritation, eyelid irritation, phototoxis, sensitization, photosensitization, and patch tests are as shown in Table l.

[2] = test system: skin; assay: Primary skin irritation test; details: Concn. 1%, solvent Squalane
Text: as §1

[3] = test system: eyelid; assay: Eyelid irritation test; details: Concn. 1%, solvent Squalane
Text: as §1

[4] = test system: skin; assay: Sensitization test (Adjuvant & Patch method); details: Induction: 5% acetone
Text: as §1

[5] = test system: skin; assay: Accumulative skin irritation test; details: Concn. 1%, solvent Squalane
Text: as §1

[6] = test system: skin; assay: Photosensitization test (Adjuvant & Strip method); details: Induction: 10% acetone
Text: as §1

[7] = test system: skin; assay: Patch test; details: Concn. 1%, solvent Squalane
Text: as §1

Compound: COC1=C(OC)C(=O)C(C/C=C(\C)CC/C=C(\C)CC/C=C(\C)CC/C=C(\C)CC/C=C(\C)CC/C=C(\C)CC/C=C(\C)CC/C=C(\C)CC/C=C(\C)CCC=C(C)C)=C(C)C1=O [ubidecarenone]
- Phototoxis, conclusion [1]: lowly phototoxic
- Primary skin irritation, conclusion [2]: lowly irritative
- Primary skin irritation, result [2]: 0.1
- Eyelid irritation, conclusion [3]: lowly irritative
- Sensitization Challenge, result ([4]; challenge 1% in acetone): 0/10
- Sensitization Challenge, conclusion ([4]; challenge 5% and 1% in acetone): lowly sensitized
- Sensitization Challenge, result ([4]; challenge 5% in acetone): 0/10
- Accumulative skin irritation, result [5]: 0.3
- Photosensitivization Challenge, result ([6]; challenge 0.5 in acetone): 0/5
- Photosensitivization Challenge, result ([6]; challenge 1 in acetone): 0/5
- Photosensitivization Challenge, result ([6]; challenge 2 in acetone): 0/5
- Photosensitivization Challenge, result ([6]; challenge 5 in acetone): 0/5
- Photosensitivization Challenge, result ([6]; challenge 10% in acetone): 0/5
- Photosensitivization Challenge, conclusion ([6]; challenge 10% to 0.5 in acetone): lowly photosensitized
- Patch test, conclusion [7]: lowly irritative
- Patch test, result [7]: 0/54
